{"source": "patent US4185016A", "about": "“Pyrrolo benzodiazepine compounds” (priority 1977, dated 1980)", "key": {"in vivo": {"assay": "in vivo", "design": "species or system DD strain male mice", "conditions": "mouse, ip", "procedure": "LD50 values of the compounds of this invention were determined by the use of DD strain male mice having body weight of 18 to 20 g, 5 heads per one group. Each test compound was dissolved into physiological solution of sodium chloride containing 1% dimethyl sulfoxide and administered intraperitoneally to the animals. The dose levels were 20 mg/kg, 16.7 mg/kg, 13.9 mg/kg, 11.6 mg/kg and 9.6 mg/kg. One week after the administration, LD50 was determined.\n(§1) The compounds used in the antitumor activity test and the acute toxicity test were the aforementioned novel compounds. The results of tests concerning the compounds of general formula (I) are listed in Table 1, while those concerning the compounds of general formula (II) are listed in Table 2."}, "[1]": {"conditions": "U.S. Pat. No. 3,361,742 and J. Am. Chem. Soc., 87, 5791-5793 (1965); cited from earlier work"}, "[2]": {"conditions": "U.S. Pat. No. 3,361,742 and J. Am. Chem. Soc., 87, 5791-5793 (1965); cited from earlier work", "remark": "listed apart in the source"}, "Leukaemia P388": {"tested_on": "Leukaemia P388", "assay_type": "in vivo, CDF1 male mice", "conditions": "ip", "source_text": "CDF1 male mice having body weight of 18 to 20 g, 10 heads per one group, were inoculated with 2×10^5 cells/mouse Leukaemia P388. Twenty four hours after the inoculation, an appointed dose of test compound was intraperitoneally administered to the animals of administration group, after which the administration was repeated for successive 6 days. The survival day numbers of the animals were counted.\nSurvival time of the animals was expressed by average survival day number.\nas §1"}, "[3]": {"conditions": "intraperitoneal, one week after administration, read-out: Acute toxicity LD50"}}, "note": "Read-outs that look alike come from different tables or passages of the source.", "data": [{"smiles": "COC1Nc2c(ccc(C)c2O)C(=O)N2CCCC12", "note": "(centres unmarked) [4, 11]", "values": [{"measurement": "LD50 at 168 h", "setting": "in vivo", "result": 13.8, "unit": "mg/kg"}]}, {"smiles": "Cc1ccc2c(c1O)NC(O)C1CC(/C=C/C(N)=O)=CN1C2=O", "note": "(centres unmarked) [5,10,11,11a-tetrahydro-9,11-dihydroxy-8-methyl-5-oxo-1H-pyrrolo[2,1-C][1,4]-benzodiazepin-2-acrylamide]", "values": [{"measurement": "antitumor activity", "setting": "[1]", "result": "antitumor"}, {"measurement": "antibacterial activity", "setting": "[2]", "result": "antibacterial"}]}, {"smiles": "COC1Nc2c(O)cccc2C(=O)N2CCCC12", "note": "(centres unmarked) [5, 13]", "values": [{"measurement": "Antitumor activity, Life-prolongation rate", "setting": "Leukaemia P388; 2.5 mg/kg", "result": 127.0, "unit": "%"}, {"measurement": "Antitumor activity, Life-prolongation rate", "setting": "Leukaemia P388; 5 mg/kg", "result": 148.0, "unit": "%"}, {"measurement": "LD50 at 168 h", "setting": "in vivo; [3]", "result": 12.8, "unit": "mg/kg"}]}, {"smiles": "COc1ccc2c(c1O)NC(OC)C1CCCN1C2=O", "note": "(centres unmarked) [15, 6]", "values": [{"measurement": "LD50 at 168 h", "setting": "in vivo; [3]", "result": 12.7, "unit": "mg/kg"}]}, {"smiles": "COC1Nc2c(ccc(C)c2OC(C)=O)C(=O)N2CCCC12", "note": "(centres unmarked) [17, 21]", "values": [{"measurement": "Antitumor activity, Life-prolongation rate", "setting": "Leukaemia P388; 2.5 mg/kg", "result": 125.0, "unit": "%"}, {"measurement": "Antitumor activity, Life-prolongation rate", "setting": "Leukaemia P388; 5 mg/kg", "result": 149.0, "unit": "%"}, {"measurement": "LD50 at 168 h", "setting": "in vivo; [3]", "result": 13.9, "unit": "mg/kg"}]}, {"smiles": "CC(=O)Oc1c(C)ccc2c1N=CC1CCCN1C2=O", "note": "(centres unmarked) [20, 19]", "values": [{"measurement": "LD50 at 168 h", "setting": "in vivo; [3]", "result": 12.8, "unit": "mg/kg"}]}, {"smiles": "COC1Nc2c(OC(C)=O)cccc2C(=O)N2CCCC12", "note": "(centres unmarked) [24, 33]", "values": [{"measurement": "Antitumor activity, Life-prolongation rate", "setting": "Leukaemia P388; 2.5 mg/kg", "result": 121.6, "unit": "%"}, {"measurement": "Antitumor activity, Life-prolongation rate", "setting": "Leukaemia P388; 5 mg/kg", "result": 143.8, "unit": "%"}, {"measurement": "LD50 at 168 h", "setting": "in vivo; [3]", "result": 12.4, "unit": "mg/kg"}]}, {"smiles": "CCOC1Nc2c(ccc(C)c2O)C(=O)N2CCCC12", "note": "(centres unmarked) [Example 7, 2,3,5,10,11,11a-hexahydro-11-ethoxy-9-hydroxy-8-methyl-1H-pyrrolo[2,1-C][1,4]benzodiazepin-5-one]", "values": [{"measurement": "LD50 at 168 h", "setting": "in vivo; [3]", "result": 13.3, "unit": "mg/kg"}]}, {"smiles": "Cc1ccc2c(c1O)N=CC1CCCN1C2=O", "note": "(centres unmarked) [Example 8, 2,3,5,11a-tetrahydro-9-hydroxy-8-methyl-1H-pyrrolo[2,1-C][1,4]benzodiazepin-5-one]", "values": [{"measurement": "Antitumor activity, Life-prolongation rate", "setting": "Leukaemia P388; 2.5 mg/kg", "result": 126.7, "unit": "%"}, {"measurement": "Antitumor activity, Life-prolongation rate", "setting": "Leukaemia P388; 5 mg/kg", "result": 148.7, "unit": "%"}, {"measurement": "LD50 at 168 h", "setting": "in vivo; [3]", "result": 13.6, "unit": "mg/kg"}]}, {"smiles": "O=C1c2cccc(O)c2N=CC2CCCN12", "note": "(centres unmarked) [Example 9, 2,3,5,11a-tetrahydro-9-hydroxy-1H-pyrrolo[2,1-C][1,4]benzodiazepin-5-one]", "values": [{"measurement": "LD50 at 168 h", "setting": "in vivo; [3]", "result": 13.1, "unit": "mg/kg"}]}, {"smiles": "COc1ccc2c(c1O)N=CC1CCCN1C2=O", "note": "(centres unmarked) [Example 10, 2,3,5,11a-tetrahydro-9-hydroxy-8-methoxy-1H-pyrrolo[2,1-C][1,4]benzodiazepin-5-one]", "values": [{"measurement": "Antitumor activity, Life-prolongation rate", "setting": "Leukaemia P388; 2.5 mg/kg", "result": 126.7, "unit": "%"}, {"measurement": "Antitumor activity, Life-prolongation rate", "setting": "Leukaemia P388; 5 mg/kg", "result": 145.6, "unit": "%"}, {"measurement": "LD50 at 168 h", "setting": "in vivo; [3]", "result": 13.3, "unit": "mg/kg"}]}, {"smiles": "Cc1ccc2c(c1O)NC(O)C1CCCN1C2=O", "note": "(centres unmarked) [Example 12, 2,3,5,10,11,11a-hexahydro-9,11-dihydroxy-8-methyl-1H-pyrrolo[2,1-C][1,4]benzodiazepin-5-one]", "values": [{"measurement": "LD50 at 168 h", "setting": "in vivo; [3]", "result": 12.9, "unit": "mg/kg"}]}, {"smiles": "O=C1c2cccc(O)c2NC(O)C2CCCN12", "note": "(centres unmarked) [Example 14, 2,3,5,10,11,11a-hexahydro-9,11-dihydroxy-1H-pyrrolo[2,1-C][1,4]benzodiazepin-5-one]", "values": [{"measurement": "LD50 at 168 h", "setting": "in vivo; [3]", "result": 12.5, "unit": "mg/kg"}]}, {"smiles": "COc1ccc2c(c1O)NC(O)C1CCCN1C2=O", "note": "(centres unmarked) [Example 16, 2,3,5,10,11,11a-hexahydro-9,11-dihydroxy-8-methoxy-1H-pyrrolo[2,1-C][1,4]benzodiazepin-5-one]", "values": [{"measurement": "LD50 at 168 h", "setting": "in vivo; [3]", "result": 12.6, "unit": "mg/kg"}]}, {"smiles": "CCOC1Nc2c(ccc(C)c2OC(C)=O)C(=O)N2CCCC12", "note": "(centres unmarked) [Example 18, 2,3,5,10,11,11a-hexahydro-9-acetoxy-11-ethoxy-8-methyl-1H-pyrrolo[2,1-C][1,4]benzodiazepin-5-one]", "values": [{"measurement": "LD50 at 168 h", "setting": "in vivo; [3]", "result": 12.8, "unit": "mg/kg"}]}, {"smiles": "CC(=O)Oc1c(C)ccc2c1NC(O)C1CCCN1C2=O", "note": "(centres unmarked) [Example 22, 2,3,5,10,11,11a-hexahydro-9-acetoxy-11-hydroxy-8-methyl-1H-pyrrolo[2,1-C][1,4]benzodiazepin-5-one]", "values": [{"measurement": "LD50 at 168 h", "setting": "in vivo; [3]", "result": 13.5, "unit": "mg/kg"}]}, {"smiles": "CC(=O)Oc1cccc2c1NC(O)C1CCCN1C2=O", "note": "(centres unmarked) [Example 23, 2,3,5,10,11,11a-hexahydro-9-acetoxy-11-hydroxy-1H-pyrrolo[2,1-C][1,4]-benzodiazepin-5-one]", "values": [{"measurement": "LD50 at 168 h", "setting": "in vivo; [3]", "result": 12.7, "unit": "mg/kg"}]}, {"smiles": "CCOC1Nc2c(O)cccc2C(=O)N2CCCC12", "note": "(centres unmarked) [Example 25, 2,3,5,10,11,11a-hexahydro-11-ethoxy-9-hydroxy-1H-pyrrolo[2,1-C][1,4]benzodiazepin-5-one]", "values": [{"measurement": "LD50 at 168 h", "setting": "in vivo; [3]", "result": 13, "unit": "mg/kg"}]}, {"smiles": "CCOC1Nc2c(OC(C)=O)cccc2C(=O)N2CCCC12", "note": "(centres unmarked) [Example 26, 2,3,5,10,11,11a-hexahydro-9-acetoxy-11-ethoxy-1H-pyrrolo[2,1-C][1,4]benzodiazepin-5-one]", "values": [{"measurement": "LD50 at 168 h", "setting": "in vivo; [3]", "result": 13.2, "unit": "mg/kg"}]}, {"smiles": "COc1ccc2c(c1OC(C)=O)NC(O)C1CCCN1C2=O", "note": "(centres unmarked) [Example 27, 2,3,5,10,11,11a-hexahydro-9-acetoxy-11-hydroxy-8-methoxy-1H-pyrrolo[2,1-C][1,4]benzodiazepin-5-one]", "values": [{"measurement": "LD50 at 168 h", "setting": "in vivo; [3]", "result": 12.4, "unit": "mg/kg"}]}, {"smiles": "COc1ccc2c(c1OC(C)=O)NC(OC)C1CCCN1C2=O", "note": "(centres unmarked) [Example 28, 2,3,5,10,11,11a-hexahydro-9-acetoxy-8,11-dimethoxy-1H-pyrrolo[2,1-C][1,4]benzodiazepin-5-one]", "values": [{"measurement": "LD50 at 168 h", "setting": "in vivo; [3]", "result": 12.3, "unit": "mg/kg"}]}, {"smiles": "CCOC1Nc2c(ccc(OC)c2O)C(=O)N2CCCC12", "note": "(centres unmarked) [Example 29, 2,3,5,10,11,11a-hexahydro-11-ethoxy-9-hydroxy-8-methoxy-1H-pyrrolo[2,1-C][1,4]benzodiazepin-5-one]", "values": [{"measurement": "Antitumor activity, Life-prolongation rate", "setting": "Leukaemia P388; 2.5 mg/kg", "result": 123.3, "unit": "%"}, {"measurement": "Antitumor activity, Life-prolongation rate", "setting": "Leukaemia P388; 5 mg/kg", "result": 141.4, "unit": "%"}, {"measurement": "LD50 at 168 h", "setting": "in vivo; [3]", "result": 12.2, "unit": "mg/kg"}]}, {"smiles": "CCOC1Nc2c(ccc(OC)c2OC(C)=O)C(=O)N2CCCC12", "note": "(centres unmarked) [Example 30, 2,3,5,10,11,11a-hexahydro-9-acetoxy-11-ethoxy-8-methoxy-1H-pyrrolo[2,1-C][1,4]benzodiazepin-5-one]", "values": [{"measurement": "LD50 at 168 h", "setting": "in vivo; [3]", "result": 12.7, "unit": "mg/kg"}]}, {"smiles": "CC(=O)Oc1cccc2c1N=CC1CCCN1C2=O", "note": "(centres unmarked) [Example 31, 2,3,5,11a-tetrahydro-9-acetoxy-1H-pyrrolo[2,1-C][1,4]benzodiazepin-5-one]", "values": [{"measurement": "LD50 at 168 h", "setting": "in vivo; [3]", "result": 13.4, "unit": "mg/kg"}]}, {"smiles": "COc1ccc2c(c1OC(C)=O)N=CC1CCCN1C2=O", "note": "(centres unmarked) [Example 32, 2,3,5,11a-tetrahydro-9-acetoxy-8-methoxy-1H-pyrrolo[2,1-C][1,4]benzodiazepin-5-one]", "values": [{"measurement": "LD50 at 168 h", "setting": "in vivo; [3]", "result": 13.7, "unit": "mg/kg"}]}]}
